Reference: patent publication US20160177324A1, “NOVEL PROTEIN AND GENE RELATED TO FLAVONOID O-METHYLTRANSFERASE (FOMT) AND THEIR USES THEREFORE” (INSTITUTE OF BOTANY, THE CHINESE ACADEMY OF SCIENCES, priority 2013, published 2016)
Where two headings read alike, the source gives them in different places.

Key:
[1] = system: PsFOMT; experiment: In vitro enzyme assay and kinetics of recombinant PsFOMT with flavonoid substrates; assay type: biochemical, Paeonia suffruticosa cv. 'Gunpohden'; set-up: key to Vmax / Kcat × 10 / Kcat/Km / Specific Activity: —: no product detected; settings: for Kcat × 10 / Kcat/Km / Specific Activity / Vmax: purified recombinant PsFOMT, 200 μM SAM, 1 mM MgCl2, pH 7.5, 35° C., means (SE) of triplicate assays; for catalytical efficiency of PsFOMT fusion protein for substrate / methylation of substrate by PsFOMT: in the presence of SAM
Source text: Full length FOMTs were amplified by primers SEQ No.7 & 8 in which restriction enzyme NdeI and BamHI site were introduced to the 5'-end and 3'-end, respectively. The DNA fragment of interest was ligated into the […]3 vector, and then the recombinant plasmid was transducted into DH5a. The FOMT cDNAs were sequenced to verify that no mutation occurred. The recombinant plasmid was isolated and digested with Ndel and BamHI. Subsequently, the fragment was ligated to the NdeI and BamHI excised expression vector pMAL-[…] with a MBP tag to yield pMAL-PsFOMT and pMAL-PtFOMT (FIG. 3). The correct construction tested by sequencing was introduced into E. coli strain BL21. E. coli harboring pMAL-PsFOMT and pMAL-PtFOMT were cultivated in 2 mL LB liquid medium containing glucose, supplemented by 100 μg/mL ampicillin until OD600 reached 0.4-0.5. After addition of isopropyl β-D-thiogalactopyranoside (IPTG) to a final concentration of 0.1 mM, the cells were further cultured at 16° C. for 20 h. Harvest the cells by centrifugation and discard the supernatant. The cells were resuspended in column buffer (20 mM Tris-HCl, 200 mM NaCl 1 mM EDTA, 10 mM β-mercaptoethanol, pH 7.4), and disrupted by sonication in an ice-water bath (Lan, T., et al., Extensive functional diversification of the Populus glutathione S-transferase supergene family. Plant Cell, 2009. 21(12): p. 3749-3766.). In each case, the homogenate was then subjected to centrifugation at 10,000 g for 10 min at 4° C. The resultant particulate material and a small portion of the supernatant were analyzed by SDS-PAGE. The rest of the supernatant was loaded onto an amylose resin column (NEB) that had been pre-equilibrated with column buffer. The overexpressed fusion protein bound to the column was eluted with column buffer plus 10 mM maltose. The concentration of purified fusion protein was detected by UV absorbance at 280 nm. As a control, BL21 cells transformed with an empty pMAL-[…] vector were assayed. The purified protein was stored at -80° C. mixed with 10% glycerol. The reaction system was according to Hugueney et al. with some modification (Hugueney, P., et al., A novel cation-dependent O-methyltransferase involved in anthocyanin methylation in grapevine. Plant Physiology, 2009. 150(4): p. 2057-2070.). Purified recombinant FOMT (2 μg) was assayed in a final volume of 200 μL containing 200 μM SAM, 1 mM MgCl2, 14 mM β-mercaptoethanol, 100 mM Tris, pH 7.5, and 20 μM flavonoid substrates. Incubation was performed at 35° C. and stopped with 200 μL methanol containing 2% formic acid. […] Reaction product was analyzed by a Dionex HPLC system (Sunnyvale, Calif.), equipped with a P680 HPLC pump, an UltiMate 3000 autosampler, a TCC-100 thermostated column compartment and a Dionex PDA100 photodiode array detector. The analytical column was C18 column of ODS 80Ts QA (150 mm×4.6 mm, 5 μm i.d., Tosoh, Tokyo) protected with a C18 guard cartridge (Shanghai ANPEL Scientific Instrument, Shanghai). The following solvent and gradient were used: A, 10% aqueous formic acid; B, methanol; constant gradient from 10 to 36% B within 15 min and back to 10% B in 3 min; the flow rate was 0.8 mL min^-1; Column temperature was maintained at 35° C.; 20 μL of analyte was injected. Chromatograms were obtained at 525 nm for anthocyanins and 350 nm for other flavonoids, and photodiode array spectra were recorded from 200 to 800 nm. Km and Vmax values were calculated from Lineweaver-Burk plots.

[2] = system: PsFOMT; experiment: as above; assay type: biochemical, Paeonia suffruticosa cv. 'Gunpohden'; set-up: key: —: no product detected; settings: purified recombinant PsFOMT, 200 μM SAM, 1 mM MgCl2, pH 7.5, 35° C., substrate 5 to 200 μM, means (SE) of triplicate assays
[3] = system: PtFOMT; experiment: In vitro enzymatic activity of recombinant PtFOMT with potential substrates; assay type: biochemical, Paeonia tenuifolia; settings: purified recombinant PtFOMT; means ± SE of triplicate assays
Source text: Full length FOMTs were amplified by primers SEQ No.7 & 8 in which restriction enzyme NdeI and BamHI site were introduced to the 5′-end and 3′-end, respectively. The DNA fragment of interest was ligated into the pEASY-T3 vector, and then the recombinant plasmid was transducted into DH5a. The FOMT cDNAs were sequenced to verify that no mutation occurred. The recombinant plasmid was isolated and digested with Ndel and BamHI. Subsequently, the fragment was ligated to the NdeI and BamHI excised expression vector pMAL-c5X with a MBP tag to yield pMAL-PsFOMT and pMAL-PtFOMT (FIG. 3). The correct construction tested by sequencing was introduced into E. coli strain BL21. E. coli harboring pMAL-PsFOMT and pMAL-PtFOMT were cultivated in 2 mL LB liquid medium containing glucose, supplemented by 100 μg/mL ampicillin until OD600 reached 0.4-0.5. After addition of isopropyl β-D-thiogalactopyranoside (IPTG) to a final concentration of 0.1 mM, the cells were further cultured at 16° C. for 20 h. Harvest the cells by centrifugation and discard the supernatant. The cells were resuspended in column buffer (20 mM Tris-HCl, 200 mM NaCl 1 mM EDTA, 10 mM β-mercaptoethanol, pH 7.4), and disrupted by sonication in an ice-water bath (Lan, T., et al., Extensive functional diversification of the Populus glutathione S-transferase supergene family. Plant Cell, 2009. 21(12): p. 3749-3766.). In each case, the homogenate was then subjected to centrifugation at 10,000 g for 10 min at 4° C. The resultant particulate material and a small portion of the supernatant were analyzed by SDS-PAGE. The rest of the supernatant was loaded onto an amylose resin column (NEB) that had been pre-equilibrated with column buffer. The overexpressed fusion protein bound to the column was eluted with column buffer plus 10 mM maltose. The concentration of purified fusion protein was detected by UV absorbance at 280 nm. As a control, BL21 cells transformed with an empty pMAL-c5X vector were assayed. The purified protein was stored at −80° C. mixed with 10% glycerol.
The reaction system was according to Hugueney et al. with some modification (Hugueney, P., et al., A novel cation-dependent O-methyltransferase involved in anthocyanin methylation in grapevine. Plant Physiology, 2009. 150(4): p. 2057-2070.). Purified recombinant FOMT (2 μg) was assayed in a final volume of 200 μL containing 200 μM SAM, 1 mM MgCl2, 14 mM β-mercaptoethanol, 100 mM Tris, pH 7.5, and 20 μM flavonoid substrates. Incubation was performed at 35° C. and stopped with 200 μL methanol containing 2% formic acid. For enzyme kinetic studies, purified FOMT was incubated based on the above condition with the exception that a range of substrate concentrations from 5 to 200 μM were used for Km determination. Reaction product was analyzed by a Dionex HPLC system (Sunnyvale, Calif.), equipped with a P680 HPLC pump, an UltiMate 3000 autosampler, a TCC-100 thermostated column compartment and a Dionex PDA100 photodiode array detector. The analytical column was C18 column of ODS 80Ts QA (150 mm×4.6 mm, 5 μm i.d., Tosoh, Tokyo) protected with a C18 guard cartridge (Shanghai ANPEL Scientific Instrument, Shanghai). […] Chromatograms were obtained at 525 nm for anthocyanins and 350 nm for other flavonoids, and photodiode array spectra were recorded from 200 to 800 nm. Km and Vmax values were calculated from Lineweaver-Burk plots.

[4] = system: cyanidin 3-glucoside 3′-O-methyltransferase (CGMT); settings: partially purified from Vitis vinifera cell suspension; Bailly et al. 1997; cited from earlier work

Row | Structure (SMILES) | Kcat × 10 [1] | Kcat/Km [1] | Specific Activity [1] | Vmax [1] | Km [2] | catalytical efficiency of PsFOMT fusion protein for substrate [1] | Specific Activity [3] | Km ([2]; read-out: Km) | methylation of substrate by PsFOMT [1] | activity of CGMT with substrate [4]
1 | O=C(O)/C=C/c1ccc(O)c(O)c1 [Caffeic acid] | — | — | — | — | — |  |  |  |  | 
2 | OC[C@H]1O[C@@H](Oc2cc3c(O)cc(O)cc3[o+]c2-c2ccc(O)c(O)c2)[C@H](O)[C@@H](O)[C@@H]1O [Cyanidin 3-O-glucoside] | 161.99 (0.73) s^−1 |  | 2314 (11) pkat mg^−1 | 11.57 (0.05) nM s^−1 |  | high catalytical efficiency | 37.98 ± 1.05 pkat mg^−1 | 1.76 µM |  | 
3 | OC[C@H]1O[C@@H](Oc2cc3c(O)cc(O)cc3[o+]c2-c2ccc(O)cc2)[C@H](O)[C@@H](O)[C@@H]1O [Pelargonidin 3-O-glucoside] | — | — | — | — | — |  |  |  |  | 
4 | OC[C@H]1O[C@@H](Oc2cc3c(O[C@@H]4O[C@H](CO)[C@@H](O)[C@H](O)[C@H]4O)cc(O)cc3[o+]c2-c2ccc(O)c(O)c2)[C@H](O)[C@@H](O)[C@@H]1O [Cyanidin 3,5-di-O-glucoside] | 127.70 (1.05) s^−1 |  | 1788 (15) pkat mg^−1 | 17.88 (0.25) nM s^−1 |  | high catalytical efficiency | 29.60 ± 3.47 pkat mg^−1 | 1.06 µM |  | 
5 | O=c1cc(-c2ccc(O)c(O)c2)oc2cc(O)cc(O)c12 [Luteolin] | — | — | — | — | — |  |  |  |  | 
6 | OC[C@H]1O[C@@H](Oc2cc3c(O)cc(O)cc3[o+]c2-c2ccc(O)c(O)c2)[C@H](O)[C@@H](O)[C@H]1O [Cyanidin 3-O-galactoside] | 217.90 (36.48) s^−1 |  | 3138 (525) pkat mg^−1 | 39.22 (6.57) nM s^−1 |  |  |  | 31.7 µM | can be methylated | 
7 | O=C(/C=C/c1ccc(O)cc1)OC[C@H]1O[C@@H](Oc2cc3c(O)cc(=O)cc-3oc2-c2ccc(O)c(O)c2)[C@H](O)[C@@H](O)[C@@H]1O [cyanidin 3-p-coumaroyl glucoside] |  |  |  |  |  |  |  |  |  | no activity
8 | O=C1C[C@@H](c2ccc(O)cc2)Oc2cc(O)cc(O)c21 [Naringenin] | — | — | — | — | — |  |  |  |  | 
9 | O=c1c(O)c(-c2ccc(O)c(O)c2)oc2cc(O)cc(O)c12 [Quercetin] | 9.83 (0.12) s^−1 |  | 142 (2) pkat mg^−1 | 1.77 (0.02) nM s^−1 |  |  | 17.58 ± 0.57 pkat mg^−1 | 4.33 µM | can be methylated | 
10 | O=c1c(O)c(-c2ccc(O)cc2)oc2cc(O)cc(O)c12 [Kaempferol] | — | — | — | — | — |  |  |  |  | 
11 | C[C@@H]1O[C@@H](OC[C@H]2O[C@@H](Oc3c(-c4ccc(O)c(O)c4)oc4cc(O)cc(O)c4c3=O)[C@H](O)[C@@H](O)[C@@H]2O)[C@H](O)[C@H](O)[C@H]1O [Quercetin 3-O-rutinoside] | 192.11 (4.41) s^−1 |  | 2744 (135) pkat mg^−1 | 27.44 (1.63) nM s^−1 |  |  | 30.20 ± 0.24 pkat mg^−1 | 12.3 µM | can be methylated | 
12 | OC[C@H]1O[C@@H](Oc2cc3c(O)cc(O)cc3[o+]c2-c2cc(O)c(O)c(O)c2)[C@H](O)[C@@H](O)[C@@H]1O [Delphinidin 3-O-glucoside] | 94.72 (1.49) s^−1 |  | 1364 (21) pkat mg^−1 | 17.05 (0.27) nM s^−1 |  |  | 21.50 ± 0.10 pkat mg^−1 | 4.11 µM | sequentially methylate 3′- and 5′-OH at B ring | 
